ChEMBL document CHEMBL1133455, “Synthesis of novel 5-substituted 3-amino-3,4-dihydro-2H-1-benzopyran derivatives and their interactions with the 5-HT1A receptor” (J Med Chem, 2000)
The source made the active and inactive calls. No cut-off for these calls is given here.

Experiments:
D(2) dopamine receptor [1] = target: T1, D(2) dopamine receptor (Homo sapiens, UniProt P14416); assay: In vitro binding affinity at human cloned Dopamine receptor D2A measured by ability to displace [3H]raclopride from D2A receptor expressed in mouse fibroblast (LtK-) cells; format: cell-based
[2] = target: T2, 5-hydroxytryptamine receptor 1A (Rattus norvegicus, UniProt P19327); assay: In vitro binding affinity at 5-HT1A receptors assayed by displacement of [3H]8-OH-DPAT from 5-hydroxytryptamine 1A receptor in rat hippocampal membranes; format: cell membranes, Hippocampus, Membrane
T2 sequence (P19327 whole entry): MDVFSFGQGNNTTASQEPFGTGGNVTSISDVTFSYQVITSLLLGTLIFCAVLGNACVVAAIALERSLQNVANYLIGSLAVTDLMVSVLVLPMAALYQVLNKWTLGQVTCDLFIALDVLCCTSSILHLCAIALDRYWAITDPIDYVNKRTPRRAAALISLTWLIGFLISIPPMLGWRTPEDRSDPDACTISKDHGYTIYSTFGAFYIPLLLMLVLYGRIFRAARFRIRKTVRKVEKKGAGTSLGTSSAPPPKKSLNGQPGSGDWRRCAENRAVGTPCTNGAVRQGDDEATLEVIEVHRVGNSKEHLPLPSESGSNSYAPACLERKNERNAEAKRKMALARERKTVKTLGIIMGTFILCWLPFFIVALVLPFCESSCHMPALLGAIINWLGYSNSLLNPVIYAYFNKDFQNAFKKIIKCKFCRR

D(1A) dopamine receptor = D(1A) dopamine receptor (Rattus norvegicus, UniProt P18901); assay: In vitro binding affinity at D1 receptor by measuring its ability to displace [3H]SCH-23390 from Dopamine receptor D1 in rat striatum
[3] = target: 5-hydroxytryptamine receptor 2A (Rattus norvegicus, UniProt P14842); assay: In vitro binding affinity at 5-hydroxytryptamine 2A receptor by displacement of [3H]ketanserin from rat cortex
[4] = target: T3, 5-hydroxytryptamine receptor 1A (Homo sapiens) (UniProt P08908); assay: Percent inhibition of vasoactive intestinal polypeptide-induced (VIP-induced) cAMP formation in GH4ZD10 cells expressing 5-HT1A receptor at 50 uM relative to 5-HT; format: functional, cell-based
T3 sequence (whole entry): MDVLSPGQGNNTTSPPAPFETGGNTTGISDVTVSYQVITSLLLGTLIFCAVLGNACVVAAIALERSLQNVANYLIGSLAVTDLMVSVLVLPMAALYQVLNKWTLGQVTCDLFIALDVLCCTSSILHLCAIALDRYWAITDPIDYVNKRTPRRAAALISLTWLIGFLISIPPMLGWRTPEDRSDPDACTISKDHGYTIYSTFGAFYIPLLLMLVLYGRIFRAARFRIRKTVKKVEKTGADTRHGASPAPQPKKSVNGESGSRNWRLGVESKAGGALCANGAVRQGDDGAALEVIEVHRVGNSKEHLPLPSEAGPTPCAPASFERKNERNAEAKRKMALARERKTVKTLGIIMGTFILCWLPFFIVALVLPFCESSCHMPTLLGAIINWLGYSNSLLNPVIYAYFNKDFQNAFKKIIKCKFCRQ

[5] = target: T2, 5-hydroxytryptamine receptor 1A; assay: In vitro binding affinity at 5-HT1A receptor by measuring its ability to displace [3H]-8-OH-DPAT from 5-hydroxytryptamine 1A receptor in rat hippocampal membranes+cortex; format: cell membranes, Hippocampus
[6] = target: T2, 5-hydroxytryptamine receptor 1A; assay: In vitro binding affinity at 5-HT1A receptor by measuring its ability to displace [3H]8-OH-DPAT from 5-hydroxytryptamine 1A receptor in rat hippocampal membranes + cortex; format: cell membranes, Hippocampus
D(2) dopamine receptor [7] = target: T1, D(2) dopamine receptor; assay: In vitro binding affinity at human cloned Dopamine receptor D2A by measuring its ability to displace [3H]raclopride from D2A receptor expressed in mouse fibroblast (LtK-) cells; format: cell-based
[8] = target: T4, 5-hydroxytryptamine receptor 1A (Rattus norvegicus) (UniProt P19327); assay: Percent of maximum response by 5-HT when tested for inhibition of vasoactive intestinal polypeptide-induced (VIP-induced) cAMP formation assessed in GH4ZD10 cells at 50 uM concentration; No effect; format: functional, cell-based
T4 sequence (whole entry): T2 sequence (P19327 whole entry)

[9] = target: T4, 5-hydroxytryptamine receptor 1A (Rattus norvegicus); assay: Percent of maximum response by 5-HT when tested for inhibition of vasoactive intestinal polypeptide-induced (VIP-induced) cAMP formation assessed in GH4ZD10 cells at 10 uM concentration; format: functional, cell-based

T1 sequence (P14416 whole entry): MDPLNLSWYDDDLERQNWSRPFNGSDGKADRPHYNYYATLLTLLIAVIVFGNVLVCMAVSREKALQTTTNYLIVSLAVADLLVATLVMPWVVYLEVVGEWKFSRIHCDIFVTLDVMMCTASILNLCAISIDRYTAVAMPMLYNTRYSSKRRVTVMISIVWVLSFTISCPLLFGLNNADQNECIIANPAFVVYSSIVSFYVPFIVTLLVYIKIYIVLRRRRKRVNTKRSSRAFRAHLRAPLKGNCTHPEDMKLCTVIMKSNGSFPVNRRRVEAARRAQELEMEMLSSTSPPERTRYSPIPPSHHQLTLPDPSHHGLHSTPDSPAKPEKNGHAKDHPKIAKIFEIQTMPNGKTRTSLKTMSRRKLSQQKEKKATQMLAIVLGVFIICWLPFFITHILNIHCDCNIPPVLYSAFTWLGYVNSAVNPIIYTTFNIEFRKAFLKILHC
Chain of D(1A) dopamine receptor (P18901 whole entry): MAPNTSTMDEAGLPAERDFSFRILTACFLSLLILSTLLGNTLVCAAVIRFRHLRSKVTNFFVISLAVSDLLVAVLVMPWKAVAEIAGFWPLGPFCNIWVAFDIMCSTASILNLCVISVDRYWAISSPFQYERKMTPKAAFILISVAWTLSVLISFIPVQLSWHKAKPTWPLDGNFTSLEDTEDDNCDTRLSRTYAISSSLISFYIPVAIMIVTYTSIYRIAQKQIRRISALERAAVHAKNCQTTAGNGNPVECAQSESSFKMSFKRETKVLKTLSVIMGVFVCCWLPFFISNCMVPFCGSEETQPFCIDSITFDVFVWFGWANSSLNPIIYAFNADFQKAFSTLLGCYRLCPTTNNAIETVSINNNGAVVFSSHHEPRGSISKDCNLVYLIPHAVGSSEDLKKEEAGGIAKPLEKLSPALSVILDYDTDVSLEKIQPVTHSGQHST
Chain of 5-hydroxytryptamine receptor 2A (P14842 whole entry): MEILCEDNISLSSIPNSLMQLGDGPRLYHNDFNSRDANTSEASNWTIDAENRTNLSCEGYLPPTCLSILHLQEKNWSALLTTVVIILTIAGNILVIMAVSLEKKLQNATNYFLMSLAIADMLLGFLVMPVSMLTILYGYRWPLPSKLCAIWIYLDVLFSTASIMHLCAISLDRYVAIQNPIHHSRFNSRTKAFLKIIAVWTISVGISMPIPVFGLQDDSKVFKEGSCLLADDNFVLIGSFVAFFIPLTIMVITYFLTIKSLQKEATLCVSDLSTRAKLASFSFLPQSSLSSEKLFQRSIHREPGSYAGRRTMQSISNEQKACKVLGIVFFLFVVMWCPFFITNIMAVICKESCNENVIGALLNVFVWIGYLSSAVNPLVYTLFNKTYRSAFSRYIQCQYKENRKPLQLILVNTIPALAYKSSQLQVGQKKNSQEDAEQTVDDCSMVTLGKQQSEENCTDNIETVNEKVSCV

Row | Ki (D(2) dopamine receptor [1]) [nM] | Ki [2] [nM] | Ki (D(1A) dopamine receptor) [nM] | Ki [3] [nM] | Efficacy [4] [%] | Compound | further results
1 | > 1000 | 397 | > 1000 | > 1000 | 20 | CC(C)N[C@H]1COc2cccc(C(N)=O)c2C1 | –
2 | – | 0.32 | – | – | 128 | CCCN(C(C)C)[C@H]1COc2cccc(C(=O)OC)c2C1 | –
3 | – | 31 | – | – | 88 | CCCN(CC(C)(C)C)[C@H]1COc2cccc(C(=O)NC)c2C1 | –
4 | – | 0.34 | – | – | 62 | CCCN(CCCCN1C(=O)CC2(CCCC2)CC1=O)[C@H]1COc2cccc(C(=O)NC)c2C1 | –
5 | > 50000 | 0.48 | > 1000 | > 1000 | 75 | CCCN(C(C)C)[C@H]1COc2cccc(C(N)=O)c2C1 | –
6 | – | 24.3 | – | – | 82 | CNC(=O)c1cccc2c1C[C@H](NCCCCN1C(=O)CC3(CCCC3)CC1=O)CO2 | –
7 | – | – | – | – | – | CCCN(C(C)C)[C@H]1COc2cccc(C(=O)OC(C)C)c2C1 | Ki [5]: 18 nM
8 | > 50000 | 7.77 | > 50000 | > 10000 | 74 | CCCN(C(C)C)[C@H]1COc2cccc(C(=O)NC(C)C)c2C1 [EBALZOTAN] | –
9 | – | – | – | – | 95 | CCCN(CCC)[C@@H]1COc2cccc(C(=O)NC(C)C)c2C1 | Ki [6]: 64 nM
10 | – | < 0.3 | – | – | 70 | CCCN(C1CCCC1)[C@H]1COc2cccc(C(=O)NC)c2C1 | –
11 | > 50000 | – | > 50000 | > 10000 | – | CCCN(C(C)C)[C@@H]1COc2cccc(C(=O)NC(C)C)c2C1 | Efficacy [8]: inactive
12 | > 1000 | – | > 1000 | > 1000 | – | NC(=O)c1cccc2c1C[C@@H](N)CO2 | Efficacy [8]: inactive
13 | – | – | – | – | – | CCCN(C(C)C)[C@H]1COc2cccc(OC)c2C1 | Ki [5]: 3.1 nM
14 | > 1000 | 200 | > 1000 | > 1000 | – | CCN(C(C)C)[C@H]1COc2cccc(C(=O)NC(C)C)c2C1 | Efficacy [9]: 34%
15 | > 1000 | 98.4 | > 1000 | > 1000 | 42 | CCCN[C@H]1COc2cccc(C(N)=O)c2C1 | –
16 | – | 18.5 | – | – | 110 | CCCN(C1CCCC1)[C@@H]1COc2cccc(C(=O)NC)c2C1 | –
17 | – | 3.96 | – | – | – | CCCN(CC(C)(C)C)[C@@H]1COc2cccc(C(=O)NC)c2C1 | Efficacy [9]: 91%
18 | > 1000 | 14 | > 1000 | > 1000 | 58 | CCCN(CCC)[C@H]1COc2cccc(C(=O)NC(C)C)c2C1 | –
19 | > 1000 | 4300 | > 1000 | > 10000 | – | CC(C)NC(=O)c1cccc2c1C[C@@H](NC(C)C)CO2 | Efficacy [8]: inactive
20 | – | 0.41 | – | – | – | CCCN(C1CCCC1)[C@H]1COc2cccc(C(=O)OC)c2C1 | –
21 | – | 2.48 | – | – | 123 | CNC(=O)c1cccc2c1C[C@H](N(CCCCN1C(=O)CC3(CCCC3)CC1=O)CC(C)C)CO2 | –
22 | > 1000 | < 0.3 | > 4000 | > 1000 | – | CCCN(C1CCCC1)[C@H]1COc2cccc(C(N)=O)c2C1 | Efficacy [9]: 80%
23 | – | 525 | – | – | 61 | CNC(=O)c1cccc2c1C[C@@H](NCCCCN1C(=O)CC3(CCCC3)CC1=O)CO2 | –
24 | – | < 0.3 | – | – | 103 | CCCN(CCCCN1C(=O)CC2(CCCC2)CC1=O)[C@@H]1COc2cccc(C(=O)NC)c2C1 | –
25 | – | 2.37 | – | > 50000 | 96 | CCCN(CC(C)C)[C@H]1COc2cccc(C(=O)NC)c2C1 | –
26 | – | – | – | – | – | CCCN(C(C)C)[C@@H]1COc2cccc(OC)c2C1 | Ki [5]: 134 nM

Row | Compound | Ki (D(2) dopamine receptor [1]) [nM] | Ki [2] [nM] | Ki (D(1A) dopamine receptor) [nM] | Ki [3] [nM] | Efficacy [4] [%] | further results
27 | CCCN(C(C)C)[C@@H]1COc2cccc(C(C)=O)c2C1 | – | 11.9 | – | – | 128 | Ki (D(2) dopamine receptor [7]): 30100 nM
28 | CCCN(C(C)C)[C@H]1COc2cccc(C(C)=O)c2C1 | – | 0.3 | – | – | – | –
